US10730833B2, “Synthesis of diindolylmethanes and indolo[3,2-b]carbazoles, compounds formed thereby, and pharmaceutical compositions containing them” (Wisconsin Alumni Research Foundation, priority 2014, dated 2020)

Biological target: AhR (Homo sapiens (Human), UniProt P35869)
Experiment: ethoxyresorufin-O-deethylase (EROD) assay, AhR activation in HepG2 cells
Type: cell-based
Protocol: The human Hep G2 cell line from the Small Molecule Screening and Synthesis Facility (UWCCC, Madison, Wis.) and was maintained in DMEM medium supplemented with 10% FBS. Cells were incubated at 37° C. in a humidified atmosphere supplemented with 5% CO2.
Preparation of cells: Cells were cleaved from T75 flasks with 0.05% trypsin. The cells were then collected by spinning at 1 g for 4 min. Excess media containing trypsin was removed from the pellet, which was then re-suspended in growth media. The cells were then counted using a hemocytometer. Cells were plated in sterile 96-well clear bottom black culture plates at a density of 20,000 cells per well in 0.1 mL of media. The cells were then incubated for 24 h at 37° C. in a humidified atmosphere supplemented with 5% CO2.
The ethoxyresorufin-O-deethylase (EROD) assay was performed on cell cultures of human Hep G2 cells. Briefly, 24 h after plating, cells in 96-well plates were treated with AhR agonists and allowed to incubate for 24 h. Each well was then rinsed with 200 uL of PBS buffer twice. To each well was then added 100 uL of 150 nM solution of 7-ethoxyresurufin and allowed to incubate for 2 h. Fluorescence measurements were obtained with a Safire II micro plate reader with excitation at 520 nm with a 25 nm bandwidth and emission at 595 nm with a 20 nm bandwidth.
The bioactivity of malassezin analogs was then investigated. The well-documented ethoxyresorufin-O-deethylase (EROD) assay was used to determine the EC50 values of the compounds towards AhR activation in HepG2 cells. Donato, M. T.; Gomezlechon, M. J.; Castell, J. V. Anal. Biochem. 1993, 213, 29; van Tonder, J. J., University of Pretoria Z.A., Thesis, 2011. This assay measures the induction of cytochrome P450-1A1 (CYP1A1), which is a major outcome of AhR activation. Whyte, J. J.; Jung, R. E.; Schmitt, C. J.; Tillitt, D. E. Crit. Rev. Toxicol. 2000, 30, 347. CYP1A1 selectively converts 7-ethoxyresorufin to the fluorescent product resorufin.

Sequence of AhR (P35869 11-848): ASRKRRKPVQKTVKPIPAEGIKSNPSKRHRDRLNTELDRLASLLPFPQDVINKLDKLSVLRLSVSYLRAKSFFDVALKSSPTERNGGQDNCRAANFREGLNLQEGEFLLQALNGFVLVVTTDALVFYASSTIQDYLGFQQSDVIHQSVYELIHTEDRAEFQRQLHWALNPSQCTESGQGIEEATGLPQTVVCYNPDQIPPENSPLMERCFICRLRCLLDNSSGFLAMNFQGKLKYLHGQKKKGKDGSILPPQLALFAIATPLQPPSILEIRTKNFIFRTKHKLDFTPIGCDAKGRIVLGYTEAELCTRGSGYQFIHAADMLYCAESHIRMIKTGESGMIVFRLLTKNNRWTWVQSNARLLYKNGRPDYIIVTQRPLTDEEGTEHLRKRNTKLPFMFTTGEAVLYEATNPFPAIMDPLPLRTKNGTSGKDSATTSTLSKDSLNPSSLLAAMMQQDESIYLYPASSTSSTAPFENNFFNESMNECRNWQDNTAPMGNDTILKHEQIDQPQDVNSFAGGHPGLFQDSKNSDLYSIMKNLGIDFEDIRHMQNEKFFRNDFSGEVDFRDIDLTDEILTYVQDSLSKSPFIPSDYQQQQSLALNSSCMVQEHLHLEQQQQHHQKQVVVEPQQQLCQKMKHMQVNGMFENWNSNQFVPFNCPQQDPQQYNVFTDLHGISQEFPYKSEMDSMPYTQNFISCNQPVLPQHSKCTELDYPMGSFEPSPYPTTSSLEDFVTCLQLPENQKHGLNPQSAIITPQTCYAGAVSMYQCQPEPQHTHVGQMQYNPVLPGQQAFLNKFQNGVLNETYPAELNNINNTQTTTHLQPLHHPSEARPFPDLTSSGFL

| SMILES | AhR potency (EC50) compared with malassezin, the positive control |
| --- | --- |
| O=Cc1c(Cc2c[nH]c3ccc(Cl)cc23)[nH]c2ccccc12 [Compound 11a] | more potent than the positive control |
| COc1ccc2[nH]cc(Cc3[nH]c4ccccc4c3C=O)c2c1 [Compound 11c] | behaved similarly to malassezin |
| Cn1cc(Cc2[nH]c3ccccc3c2C=O)c2ccccc21 [Compound 11d] | about five times lower than that of malassezin |
| O=Cc1c(Cc2c[nH]c3c(Cl)cccc23)[nH]c2ccccc12 [Compound 11b] | slightly weaker agonist |
